Data from patent US20050119301A1, “Treatment of restenosis” (priority 2001, published 2005).
“Also recorded” adds a separate entry of the source.

Key:
rat thoracic aorta = assay: Contractile curves to noradrenaline in rat isolated aortic rings (Protocol 1); conditions: for dose dependency of the antagonising action on noradrenaline contraction: 0.1 and 1 μg/ml; for antagonising the contractile response to noradrenaline (in words): order of potency at 1 μg/ml; for y max, Noradrenaline + Test compound (B): mean ± SEM; for y max Difference (A − B): noradrenaline alone minus noradrenaline + compound
Method: Male Sprague-Dawley rats (250±50 g) were gassed with 80% CO2 and 20% O2 until killed. The thoracic aorta was excised and quickly placed in ice-cold Krebs modified solution composed of NaCl […], […] 4.7 mM, MgSO4 7H2O 1.17 mM, NaHCO3 25 mM, KH2PO4 1.18 mM, CaCl2 2.5 mM, glucose 11 mM and EDTA 0.03 mM. It was then trimmed of fat and connective tissue and cut into 2-3 mm wide rings. Each ring was mounted on two parallel stainless steel hooks in a single water-jacketed 3 ml organ bath containing modified Krebs solution maintained at 37° C. and bubbled with 95% O2 plus 5% CO2. The lower hook was attached to a movable support leg and the upper hook to an FTO3 force transducer (Grass Scientific Instruments, Mitutoyo, Japan) for isometric recordings. Changes in force were amplified (Quadbridge amplifier, Scientific Concepts Inc., Victoria, Australia) and recorded on a MacLab 8E data acquisition system (Adinstruments Pty Ltd., NSW, Australia) linked to an Apple computer (Apple Computer Inc, Cupertina, Calif.). Rings were set at an initial tension of 2 g and allowed to equilibrate for 30 minutes after which time they were re-set to 2 g tension before the commencement of each experimental protocol.
Full concentration-contractile curves were obtained to noradrenaline (0.1 nM-[…]) in the absence and presence of β-estradiol (1 μg/ml); Cpd. 5 (0.1 and 1 μg/ml); Cpd. 7 (0.1 and 1 μg/ml); Cpd. 8 (0.1 and 1 μg/ml) and Cpd. 12 (1 μg/ml) and the vehicle equi-volume DMSO. Only one compound at any one concentration was tested on any one ring from any one animal.
Contractile responses are expressed in g tension (mean+standard error of the mean). Dilatory responses are expressed as a percentage of the contractile force generated by the pre-constricting agent used. Individual concentration-response curves for noradrenaline and acetylcholine±the interventions used were fitted to a logistic equation of the form […] where E is the response, M is the maximum response and K is the concentration eliciting 50% of the maximum response (ie neg log EC50).

[1] = test system: Vascular smooth muscle cells (VSMC) derived from internal mammary artery (IMA); assay: Serum-induced VSMC proliferation, [3H]-thymidine incorporation; type: cell-based, human; conditions: for proliferation of IMA-derived VSMC at high concentrations (in words) / proliferation of IMA-derived VSMC (in words): 2.5% FBS; for proliferation of IMA-derived VSMC (in words): 0.01-100 mM tested, Cpd. 7 effect from 0.1 mM up to 1 mM
Method: Vascular smooth muscle cells (VSMC) derived from internal mammary artery (IMA) were cultured in 10% FBS-DMEM. Cells were grown to confluence in LG (glucose 5 mM)-medium then trypsinized, diluted with 10% FBS-LG medium to about 10,000 cells/ml and 1 ml of suspension was) aliquoted into four 24-well plates. Cells were then allowed to grow for 2 days to visual confluence. LG serum-free media was changed for 48 h to synchronize most cells at Go/G1.
After 24 h of serum-free medium, cells were treated with the compounds (Cpd. 5, Cpd. 7, Cpd. 8 or Cpd. 12) for 4 h and FBS was added (final concentration 2.5%) over night (18-20 hours). 4 wells were allocated for each treatment:
Cell proliferation was induced by a variety of growth factors such as serum and platelet derived growth factor (PDGF).
Media was changed to LG serum-free DMEM and cells were treated with [^3H]-thymidine at 1 μCi/well for 3 hours. Cells were washed twice with ice cold Dulbecco's PBS. Next, ice cold 0.2M HClO4 (1 ml/well) was added and cells were incubated on ice for 30 min. Cells were then washed three times with 0.5 ml/well of ice cold 0.2M HClO4. Media (0.5 ml/well of 0.2 M NaOH) was replaced and cells were incubate at 37° C. After 1 hour, cells were treated with acetic acid (6%, 0.2 ml/well), transferred to scintillation vials with 3 ml scintillation liquid (Instagel) and counted for 2 min per vial.

[2] = biological target: T1, Soybean 15-lipoxygenase (SLO) (Glycine max, UniProt P08170); assay: Inhibition of lipoxygenase, SLO-induced oxidation of linoleate; type: biochemical; design: dose or concentration left out as unconfirmed
T1 construct: purchased Sigma, St. Louis, Mo
T1 sequence (P08170 1-839): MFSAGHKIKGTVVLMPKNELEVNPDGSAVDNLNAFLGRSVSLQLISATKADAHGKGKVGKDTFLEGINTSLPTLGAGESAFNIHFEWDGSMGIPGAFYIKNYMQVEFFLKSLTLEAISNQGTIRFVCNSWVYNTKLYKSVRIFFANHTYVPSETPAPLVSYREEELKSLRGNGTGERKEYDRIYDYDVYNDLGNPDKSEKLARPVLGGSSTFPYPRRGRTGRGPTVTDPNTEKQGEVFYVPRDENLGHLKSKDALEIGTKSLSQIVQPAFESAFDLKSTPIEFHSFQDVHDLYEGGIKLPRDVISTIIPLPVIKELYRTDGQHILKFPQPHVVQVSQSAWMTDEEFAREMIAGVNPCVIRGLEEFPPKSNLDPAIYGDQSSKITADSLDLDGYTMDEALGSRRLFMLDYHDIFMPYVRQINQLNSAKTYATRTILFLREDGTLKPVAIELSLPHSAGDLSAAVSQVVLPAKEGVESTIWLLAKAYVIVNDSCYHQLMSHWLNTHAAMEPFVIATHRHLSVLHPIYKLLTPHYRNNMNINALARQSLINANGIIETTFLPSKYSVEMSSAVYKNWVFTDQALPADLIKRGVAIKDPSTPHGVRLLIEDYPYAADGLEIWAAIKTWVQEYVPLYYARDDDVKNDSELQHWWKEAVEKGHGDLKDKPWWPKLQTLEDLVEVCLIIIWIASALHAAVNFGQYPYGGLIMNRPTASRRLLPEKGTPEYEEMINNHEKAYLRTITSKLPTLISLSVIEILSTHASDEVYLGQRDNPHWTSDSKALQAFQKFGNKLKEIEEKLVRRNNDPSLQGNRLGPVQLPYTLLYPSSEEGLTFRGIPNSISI
Method: Soybean 15-lipoxygenase (SLO) is a suitable model of 15-lipoxygenase and was therefore used to assess the ability of Cpd. 7, Cpd. 8 and Cpd. 12 to inhibit this enzyme. SLO-induced oxidation of linoleate was performed as described previously (Upston et al., 1996). Briefly, linoleate (100 mM) in PBS was oxidized by SLO (60 U/mL) in the absence and presence of 10 mM Cpd. 7, Cpd. 8 or Cpd. 12, or 100 mM eicosatetraynoic acid (ETYA, positive control). Formation of linoleate hydroperoxide was monitored by UV 234 nm using the Perkin Elmer's UV/Vis Lambda 40 spectrophotomneter. The test was performed twice as single analysis. An appropriate concentration of alcohol (ethanol and isopropanol; 0.13% -0.2% v/v) was included in the respective control samples.

Oc1ccc(C2COc3cc(O)ccc3C2O)cc1 (stereo not drawn) [Cpd. 8]
dose dependency of the antagonising action on noradrenaline contraction (rat thoracic aorta): dose dependent | antagonising the contractile response to noradrenaline (in words) (rat thoracic aorta): active but less potent than β-estradiol; also recorded: the least potent | y max, Noradrenaline + Test compound (B) (rat thoracic aorta; test compound 0.1 μg/ml): 1.34 ± 1.20 g tension | y max Difference (A − B) (rat thoracic aorta; test compound 0.1 μg/ml): 0.56 ± 0.15 g tension | y max, Noradrenaline + Test compound (B) (rat thoracic aorta; test compound 1 μg/ml): 0.86 ± 0.31 g tension | y max Difference (A − B) (rat thoracic aorta; test compound 1 μg/ml): 0.69 ± 0.28 g tension | proliferation of IMA-derived VSMC at high concentrations (in words) ([1]; 10 mM and 100 mM): caused a significant increase in proliferation | inhibition of soybean 15-lipoxygenase (in words) [2]: neither Cpd. 7 nor Cpd. 8 were able to inhibit SLO

Oc1ccc(C2COc3cc(O)ccc3C2O)cc1 (stereo not drawn) [Cpd. 7]
dose dependency of the antagonising action on noradrenaline contraction (rat thoracic aorta): dose dependent | antagonising the contractile response to noradrenaline (in words) (rat thoracic aorta): active but less potent than β-estradiol; also recorded: equipotent but less potent than Cpd. 12 | y max, Noradrenaline + Test compound (B) (rat thoracic aorta; test compound 0.1 μg/ml): 1.41 ± 0.13 g tension | y max Difference (A − B) (rat thoracic aorta; test compound 0.1 μg/ml): 0.25 ± 0.25 g tension | y max, Noradrenaline + Test compound (B) (rat thoracic aorta; test compound 1 μg/ml): 1.26 ± 0.34 g tension | y max Difference (A − B) (rat thoracic aorta; test compound 1 μg/ml): 1.38 ± 0.27 g tension | proliferation of IMA-derived VSMC (in words) [1]: significantly inhibited proliferation | proliferation of IMA-derived VSMC at high concentrations (in words) ([1]; 10 mM and 100 mM): relative increase in proliferation | inhibition of soybean 15-lipoxygenase (in words) [2]: neither Cpd. 7 nor Cpd. 8 were able to inhibit SLO

O=C1c2ccc(O)cc2OCC1c1ccc(O)cc1 (stereo not drawn) [Cpd. 5]
dose dependency of the antagonising action on noradrenaline contraction (rat thoracic aorta): dose dependent | antagonising the contractile response to noradrenaline (in words) (rat thoracic aorta): active but less potent than β-estradiol; also recorded: equipotent but less potent than Cpd. 12 | y max, Noradrenaline + Test compound (B) (rat thoracic aorta; test compound 0.1 μg/ml): 1.50 ± 0.32 g tension | y max Difference (A − B) (rat thoracic aorta; test compound 0.1 μg/ml): 0.81 ± 0.25 g tension | y max, Noradrenaline + Test compound (B) (rat thoracic aorta; test compound 1 μg/ml): 1.13 ± 0.20 g tension | y max Difference (A − B) (rat thoracic aorta; test compound 1 μg/ml): 1.02 ± 0.24 g tension | proliferation of IMA-derived VSMC (in words) [1]: relatively inactive

Oc1ccc(C2=Cc3ccc(O)cc3OC2)cc1 [Cpd. 12]
antagonising the contractile response to noradrenaline (in words) (rat thoracic aorta): comparable to β-estradiol; also recorded: most effective and comparable to 170-estradiol | y max, Noradrenaline + Test compound (B) (rat thoracic aorta; test compound 1 μg/ml): 0.80 ± 0.36 g tension | y max Difference (A − B) (rat thoracic aorta; test compound 1 μg/ml): 2.27 ± 0.68 g tension | cell damage ([1]; 10 mM and 100 mM): caused significant cell damage | proliferation of IMA-derived VSMC (in words) [1]: did not appear to inhibit cellular proliferation | inhibition of soybean 15-lipoxygenase (in words) [2]: effective inhibitor of lipoxygenase type-1
